Test system: hypothalamic gene expression
Assay: Hypothalamic RNA-seq and RT-QPCR
Assay type: in vivo, mouse
Procedure: Fresh hypothalamus tissue was lysed in TRIzol® using a rotor stator homogenizer. TRIzol samples were frozen at −20° C. in microfuge tubes until purified (2 weeks to 5 months). […] Purified RNA was then DNAse-treated using TURBO DNA-free™ Kit (ThermoFisher #AM1907) according to manufacturer's instructions, diluted to 60 ng/μL in nuclease-free water, and stored at −80° C.
RNA sequencing and library preparation was performed by Virginia Tech's Genomics Sequencing Center facility at the Fralin Life Sciences Institute. […] The library was enriched by 14 cycles of PCR, validated using Agilent TapeStation, and quantitated by qPCR. Individually indexed cDNA libraries were pooled and sequenced on NextSeq 75 SR. The Illumina NextSeq Control Software v2.1.0.32 with Real Time Analysis RTA v2.4.11.0 was used to provide the management and execution of the NextSeq 500 and to generate binary base call (BCL) files. The BCL files were converted to FASTQ files, adapters trimmed, and demul-tiplexed using bcl2fastq Conversion Software v2.20. FASTQ files were aligned to mouse genome GRCm38.p6 using the Geneious RNA assembler 2 Jan. […] Raw read counts were quantified to gene and/or transcript annotations with loss of strand-specificity. Differential expression analysis across experimental conditions was performed using the DESeq2 plugin in Geneious Prime. Default settings for filtering low-expression mapped genetic features were used for the DESeq2 plugin. False discovery rate (FDR) was calculated using the Benjamini-Hochberg procedure with a threshold for significance of FDR <0.10. Additionally, raw read counts were used to quantify differential expression through edgeR and voom using the DEApp online webserver. Low-expression mapped genetic features were removed with log 2CPM <1 in 2 or more samples. The results from the three differential expression methodologies, DESeq2, edgeR, and voom, were compared using R and spreadsheet software such as Microsoft Excel. Differentially expressed genes were analyzed for gene-ontology enrichment with MouseMine.
Reactions of 10 μL were performed using 150 nM final primer concentration. […] A 90 ng measure of RNA was used per 10 μL reaction. Two to three technical replicates were performed. Control reactions for each sample (minus reverse-transcriptase and minus template controls) were used for quality control. […] Quality-control measures including melt-curve analysis, technical replicate analysis, etc., were analyzed by thermocycler software and by operator; any major errors were excluded from analysis when deemed appropriate by the quality-control software, and/or new samples and plates were run. Candidate reference genes for ddCT analysis were analyzed and mouse beta-actin was chosen as the reference gene control for all experiments.
The numbers of samples in statistical tests are described in respective figures. The 2ddCT method of relative quantification was used. Statistical significance tests were performed on respective ddCT values, from which Relative Quantification values were derived. A two-way ANOVA with Bonferroni correction was used for relative expression of RNA normalized to WT or control conditions.

Substance: conjugated linoleic acid [CLA]
- Chmp1b mRNA, verification QPCR (QPCR, p=0.01): increase was maintained
- Retreg2 mRNA, validation QPCR (QPCR, p=0.22): not significant
- Genes up-regulated by CLA diet (RNA-seq): 135 genes
- Retreg2 mRNA reduction (RNA-seq, CLA diet treatment on PWS mice): 0.89 fold
- Differentially expressed genes between control diet and CLA diets (RNA-seq, WT and PWS hypothalamus): 431 genes
- Chmp1b mRNA increase with CLA diet (RNA-seq, both genotypes): 1.27 fold
- Mael expression in PWS mice (RNA-seq, not confirmed by RT-QPCR): rescued
- Gene Ontology enrichment, WT response to CLA diet (WT only): starvation, nutrient levels, and cellular stress were significantly enriched
- Gene Ontology enrichment, CLA vs control (all genotypes): significantly enriched processes related to ribosomal RNA processing, cellular metabolic processes, and aging, lethality, or survival processes

From patent US20240238237A1, “CONJUGATED LINOLEIC ACID SUPPLEMENTATION FOR DISEASE TREATMENT” (VIRGINIA TECH INTELLECTUAL PROPERTIES, INC., priority 2021, published 2024)
